These results are taken from patent US10772847B1, “Combinational fendiline formulations and uses thereof” (UNIVERSITY OF SOUTH FLORIDA, priority 2016, dated 2020).

SMILES strings stand for the structures.

One series relates to ADAM10. The settings on record: shown recently (introduction); cited from earlier work.
A further series deals with cancer cells. The settings on record: shown earlier (introduction); cited from earlier work.
The next series has as its system P-Aurora ABC. The series can be described thus: Fluorescent microscopy of p-Aurora ABC in CD18 cells. The class given is cell-based. The settings on record: about 24 hours of treatment, FIGS. 26A-26C. The method, then:
FIGS. 26A-26C show fluorescent microscopic images of CD18 cells treated with fendiline or Tivantinib as compared to untreated after about 24 hours of treatment and staining with antibodies against p-Aurora ABC or a-tubulin and counterstained with Hoechst.

In the case of `CC(NCCC(c1ccccc1)c1ccccc1)c1ccccc1` (stereo not drawn) [fendiline], in the series on ADAM10, the ADAM10 inhibition result is on record as “inhibits”. Also, the “cytotoxicity in cancer cells” value in the series on cancer cells is recorded as “induces cytotoxicity”. Besides, in the series with P-Aurora ABC, the “aurora ABC phosphorylation” value was “inhibit”.
